Source: PMC5342071, “A first generation inhibitor of human Greatwall kinase, enabled by structural and functional characterisation of a minimal kinase domain construct” (Oncotarget, 2016)

Columns and labels:
Assay type in all cases: biochemical
[1] = molecular target: T1, hGWL-KinDom (Homo sapiens, UniProt Q96GX5); test: Kinase-Glo Max luminescence kinase assay with hGWL-KinDom; conditions: for Km / kcat: substrate of hGWL-KinDom, Kinase-Glo Max
T1 construct: that encoded amino acids (aa) 1-194 + ‘RTFC’ + 740-879 of hGWL; GST (rhinovirus 3C-protease cleavable) (N, cleaved yes); made in house; host or cells: E. coli Rosetta2(DE3)
Protocol: Non-radioactive kinase assays were set-up by combining hGWL-KinDom (305 µM in 20 mM HEPES pH 7.5, FL 500 mM NaCl, and 0.5 mM TCEP) diluted to desired concentration or immunoprecipitated hGWL on beads with ultra-pure ATP [Promega, 25 µM] and His-tagged substrate  α-endosulfine (ENSA, 2 µM) in kinase assay buffer (50 mM Tris-HCl pH 7.5, 0.5 mM EGTA, 150 mM NaCl, 0.1% v/v NP-40 and 15 mM MgCl2). The reaction was allowed to proceed for 30 min at 37 °C or another indicated time-point after which it was stopped with either SDS loading buffer (5X buffer, including 0.25 % w/v Bromophenol blue, 0.5 M DTT (dithiothreitol), 50% v/v Glycerol, 10% v/v SDS (sodium dodecyl sulphate), and 0.25M Tris-HCl pH 6.8) or Kinase-Glo Max reagent [Promega]. Recombinant His-tagged ENSA was purified using Ni-NTA agarose [QIAGEN] from BL21 E. coli following the manufacturer’s recommended protocol. […]
(§1) All kinase assays were repeated thrice per assay condition and each point on the concentration-dependent response curves represents the mean ± […]
After stopping the above non-radioactive kinase assay with 1 volume of Kinase-Glo Max reagent the mixture was allowed to incubate for a further 15 min. To detect consumption of ATP, samples were transferred to white, flat-bottom 96-well plates [Thermo Fisher Scientific, Loughborough, UK] and luminescence was detected using a POLARstar Omega micro-plate reader [BMG Labtech GmbH, Ortenberg, Germany]. As this assay measures ATP, activity or ATP turnover was measured as the -ΔRLU. […]

[2] = molecular target: T2, PKA (Homo sapiens, UniProt P17612); test: PKA kinase assay (Promega)
T2 construct: purchased Promega
Protocol: (§2) hGWLFL, 100 µl of lysate was diluted 5-fold with IP buffer and combined with 3 µl anti-Flag M2 magnetic Dynabeads [Sigma-Aldrich] overnight at 4 °C. After sequential washes with IP buffer, 1:1 mix of IP and kinase assay buffers and a final wash in kinase assay buffer, the beads were then used in the kinase assay. The reaction was stopped by adding SDS loading buffer and analysed by western blot: p-ENSA and GWL levels were detected using the anti-phospho(Ser67)-ENSA and anti-MASTL(GWL, Prestige) antibodies. Activity was measured as the p-ENSA/GWL ratio and % kinase activity was normalised to the DMSO control. All kinases assays were repeated thrice per assay condition and each point on the concentration-dependent response curves represents the mean ± 1 S.D.
(§3) PKA, ROCK1 and CDK2 kinase assays […]
(§4) Data were normalised against the AllStars negative control siRNA treated cells and values obtained from 3 – 5 biological replicates were reported as the mean ± 1 S.D.

[3] = molecular target: T3, hGWL^FL (Homo sapiens, UniProt Q96GX5); test: Immunoprecipitation kinase assay with Flag-tagged hGWL^FL (p-ENSA western); conditions: for IC50: immunoprecipitated Flag-tagged hGWL^FL, read-out: IC50 GWL^FL; for inhibition of hGWL^FL (result in words): immunoprecipitation kinase assay
T3 construct: N-terminally FLAG-tagged full-length human GWL; made in house; host or cells: HEK293T cells, transfected and nocodazole-arrested; protein captured on anti-Flag M2 beads
T3 sequence (Q96GX5 1-879): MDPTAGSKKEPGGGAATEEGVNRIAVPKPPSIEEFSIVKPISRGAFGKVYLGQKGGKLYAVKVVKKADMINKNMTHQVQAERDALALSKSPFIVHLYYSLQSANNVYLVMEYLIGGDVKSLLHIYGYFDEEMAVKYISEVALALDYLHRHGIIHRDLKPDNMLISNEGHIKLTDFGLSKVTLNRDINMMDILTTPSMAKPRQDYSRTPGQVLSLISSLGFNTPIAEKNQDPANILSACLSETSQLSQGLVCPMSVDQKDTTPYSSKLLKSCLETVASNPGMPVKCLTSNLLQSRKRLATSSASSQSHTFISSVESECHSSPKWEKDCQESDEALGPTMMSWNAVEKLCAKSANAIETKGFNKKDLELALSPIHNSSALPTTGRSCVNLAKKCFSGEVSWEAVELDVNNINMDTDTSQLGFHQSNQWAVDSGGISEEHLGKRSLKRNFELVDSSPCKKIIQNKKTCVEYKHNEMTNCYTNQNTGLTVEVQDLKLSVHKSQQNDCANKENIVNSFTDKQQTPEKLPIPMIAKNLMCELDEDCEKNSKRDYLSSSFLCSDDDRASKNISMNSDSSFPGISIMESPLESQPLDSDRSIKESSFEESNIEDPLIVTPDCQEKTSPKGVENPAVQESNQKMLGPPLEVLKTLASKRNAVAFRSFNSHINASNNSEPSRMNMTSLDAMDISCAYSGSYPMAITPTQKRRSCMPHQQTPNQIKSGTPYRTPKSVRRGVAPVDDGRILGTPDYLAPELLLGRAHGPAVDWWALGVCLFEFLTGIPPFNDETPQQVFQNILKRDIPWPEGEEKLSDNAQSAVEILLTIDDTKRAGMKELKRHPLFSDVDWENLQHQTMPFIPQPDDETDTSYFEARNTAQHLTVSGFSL
Protocol: 500 mM NaCl, and 0.5 mM TCEP) diluted to desired concentration or immunoprecipitated hGWL on beads with ultra-pure ATP [Promega, 25 µM] and His-tagged substrate  α-endosulfine (ENSA, 2 µM) in kinase assay buffer (50 mM Tris-HCl pH 7.5, 0.5 mM EGTA, 150 mM NaCl, 0.1% v/v NP-40 and 15 mM MgCl2). The […]
(dithiothreitol), 50% v/v Glycerol, 10% v/v SDS (sodium dodecyl sulphate), and 0.25M Tris-HCl pH 6.8) or Kinase-Glo Max reagent [Promega]. Recombinant His-tagged ENSA was purified using Ni-NTA agarose [QIAGEN] from BL21 E. coli following the manufacturer’s recommended protocol. […]
as §1
Immunoprecipitation Kinase Assay
HEK293T cells were transfected with 10 µg of plasmid (Flag-tagged hGWLFL or GFP; pcDNA3-EGFP, Addgene, Cambridge MA, USA) using CaCl2. […]
incubated for a further 16–18 h. Cells were collected and washed in PBS-A followed by lysis on ice for 20 min in 1mL IP buffer (50 mM Tris-HCl pH 7.5, 150 mM NaCl, 10% v/v glycerol, 0.5% v/v NP-40, 1 mM EDTA supplemented with protease and phosphatase inhibitors (Complete and PhosStop; Roche Diagnostics)). Samples were then sonicated and clarified by centrifugation at 13,000 rpm for 30 min at 4°C. To capture Flag-tagged […]
as §2, with “S.D. […]” for “S.D.”

[4] = molecular target: T4, ROCK1 (Homo sapiens, UniProt Q13464); test: ROCK1 kinase assay (Promega)
T4 construct: purchased Promega
Protocol: as §2, §3, §4

[5] = molecular target: T1, hGWL-KinDom; test: Inhibitor screen of pooled library with hGWL-KinDom (Kinase-Glo Max); conditions: for inhibition at 10 µM: 10 μM screening concentration, ATP concentration = 45 μM; for Rank in inhibitor screen: rank by potency in the screen
Protocol: Two small-molecule compound libraries, enriched with pharmacophores known to interact with the ATP-binding site of protein kinases, were screened as a pooled library in a Kinase-GloMax luminescence-kinase assay. page 4: […] Dynabeads [Sigma-Aldrich] overnight at 4 °C. After sequential washes with IP buffer, 1:1 mix of IP and kinase assay buffers and a final wash in kinase assay buffer, the beads were then used in the kinase assay. The reaction was stopped by adding SDS loading buffer and analysed by western blot: p-ENSA and GWL levels were detected using the anti-phospho([…] and […], Prestige) antibodies. Activity was measured as the […] ratio and % kinase activity was normalised to the DMSO control. All kinases assays were repeated thrice per assay condition and each point on the concentration-dependent response curves represents the mean ± 1 S.D. PKA, ROCK1 and CDK2 kinase assays PKA and ROCK1 assays (Promega) were carried out according to the manufacturer's protocols and CDK2 assays were carried out with Histone H1 as substrate (1 µg per 20 µl reaction) according to our Kinase-Glo Max assay. CDK2 was expressed and purified from E. coli as previously described (10). Inhibitor Screens with hGWL-KinDom Two small-molecule compound libraries, enriched with pharmacophores known to interact with the ATP- binding site of protein kinases, were kindly provided by GlaxoSmithKline and Roche. We used this pooled library (582 compounds, 10 µM screening concentrations) in a Kinase-Glo Max luminescence kinase assay (11, 12) as part of a two-point screen against hGWL-KinDom kinase activity, using ATP at fixed concentrations of […] With STU as positive control at a […] 4A,B). […] rate = 5.8%; Supplementary Figure 4A). Molecular Docking - AutoDock AT13148 and GKI-1/2 were docked into the ATP-binding site of the hGWL-KinDom crystal structure (where the disordered C-helix was homology-modelled) using AutoDock 4.2.6. PDB format files for the ligand and kinase domain were pre-processed using AutoDock Tools 1.5.6 as described in Mohamed, et al. (13). (Figure 4 and Supplementary Figure 6A,B). Immunofluorescence and Time-lapse video microscopy 2.5 X 105 HeLa cells were plated onto glass coverslips in a 6-well plate, or 4-well µ-slides [Ibidi GmbH] were seeded with 5 X 104 cells and then transfected with Qiagen AllStars negative control or Hs_MASTL_6 siRNAs (14) using Lipofectamine RNAiMax [ThermoFisher Scientific]. Media was exchanged with fresh media the next day. 48 hours after siRNA treatment, only cells to be used for immunofluorescence (IF) were treated with nocodazole (200 ng/mL) and DMSO or GKI-1 at the indicated concentration. For IF, cells were fixed, stained with primary mouse anti-GWL and rabbit anti-p-ENSA antibodies, secondary Alexa Fluor 647-conjugated anti- rabbit and Alexa Fluor 488-conjugated anti-mouse antibodies, DAPI and mounted onto glass microscope slides using Diamond Antifade Mountant [Molecular Probes, ThermoFisher Scientific]. Quantitation of IF images was performed using the […]-Content Screening Station [Olympus Life Science] which acquired 220, 40x images per cover slip. Data were normalised against the AllStars negative control siRNA treated cells and values obtained from three biological replicates were reported as the mean ± 1 S.D. To assist with selecting mitotic cells, ScanR imaging software was utilised to gate for mitotic cells using the circularity factor and total DAPI parameters. To produce time-lapse videos, after 48 hours and cell treatment with DMSO or compound (cells were treated with GKI-1 for 4-h before image acquisition) cells plated in 4-well µ-slides were imaged every 5 minutes for 8.5 hours on an Olympus IX73 microscope, using a 40 x 0.95NA air objective, and recorded on an Orca-Flash 4.0 CMOS camera [Hamatsu]. The computer program Fiji (http://www.fiji.sc/Fiji) was used to generate videos from image sequence TIF files. Data were normalised against the AllStars negative control siRNA treated cells and […]

T1 sequence (Q96GX5 with tags, fused parts or gaps limits assumed): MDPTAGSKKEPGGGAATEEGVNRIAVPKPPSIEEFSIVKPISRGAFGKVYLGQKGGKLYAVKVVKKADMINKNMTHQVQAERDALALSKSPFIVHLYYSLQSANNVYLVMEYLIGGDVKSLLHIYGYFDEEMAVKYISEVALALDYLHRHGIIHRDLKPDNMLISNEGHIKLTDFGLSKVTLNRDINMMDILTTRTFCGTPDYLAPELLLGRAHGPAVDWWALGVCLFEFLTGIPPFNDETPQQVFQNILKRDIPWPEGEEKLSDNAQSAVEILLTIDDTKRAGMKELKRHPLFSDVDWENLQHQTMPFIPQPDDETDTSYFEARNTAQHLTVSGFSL
T4 sequence (Q13464 whole entry): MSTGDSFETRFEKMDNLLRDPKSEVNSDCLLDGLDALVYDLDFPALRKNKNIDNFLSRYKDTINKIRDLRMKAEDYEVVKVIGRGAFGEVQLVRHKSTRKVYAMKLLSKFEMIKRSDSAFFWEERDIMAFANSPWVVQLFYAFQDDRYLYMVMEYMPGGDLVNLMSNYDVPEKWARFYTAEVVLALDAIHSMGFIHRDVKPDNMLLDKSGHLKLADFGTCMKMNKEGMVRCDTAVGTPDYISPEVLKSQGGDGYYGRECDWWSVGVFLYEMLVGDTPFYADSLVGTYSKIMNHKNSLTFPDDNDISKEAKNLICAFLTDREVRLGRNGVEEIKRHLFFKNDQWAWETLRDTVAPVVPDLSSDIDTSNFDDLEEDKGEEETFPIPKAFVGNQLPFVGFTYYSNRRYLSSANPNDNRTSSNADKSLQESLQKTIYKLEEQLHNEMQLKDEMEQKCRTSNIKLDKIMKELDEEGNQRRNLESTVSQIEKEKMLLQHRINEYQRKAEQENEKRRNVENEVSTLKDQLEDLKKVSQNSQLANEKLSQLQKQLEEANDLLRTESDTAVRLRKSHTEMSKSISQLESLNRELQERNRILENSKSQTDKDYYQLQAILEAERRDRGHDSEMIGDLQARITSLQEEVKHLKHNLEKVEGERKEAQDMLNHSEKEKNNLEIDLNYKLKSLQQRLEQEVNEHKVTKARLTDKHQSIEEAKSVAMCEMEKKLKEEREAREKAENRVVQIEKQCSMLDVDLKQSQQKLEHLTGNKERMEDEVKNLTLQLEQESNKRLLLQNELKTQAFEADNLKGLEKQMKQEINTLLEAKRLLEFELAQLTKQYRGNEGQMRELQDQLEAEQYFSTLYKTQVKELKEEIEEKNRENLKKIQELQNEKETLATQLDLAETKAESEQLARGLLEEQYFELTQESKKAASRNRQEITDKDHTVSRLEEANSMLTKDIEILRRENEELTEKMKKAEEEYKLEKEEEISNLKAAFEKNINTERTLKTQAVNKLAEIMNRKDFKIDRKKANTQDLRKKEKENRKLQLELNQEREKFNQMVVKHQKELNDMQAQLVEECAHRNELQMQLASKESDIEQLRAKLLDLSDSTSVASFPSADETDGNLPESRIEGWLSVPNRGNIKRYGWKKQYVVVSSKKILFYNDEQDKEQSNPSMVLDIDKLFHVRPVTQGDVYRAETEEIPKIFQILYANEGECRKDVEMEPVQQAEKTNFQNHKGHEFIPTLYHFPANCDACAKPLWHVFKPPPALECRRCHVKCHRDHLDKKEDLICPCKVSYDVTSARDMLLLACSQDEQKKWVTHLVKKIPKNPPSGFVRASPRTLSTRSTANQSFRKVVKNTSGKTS

IC50 [3]	inhibition of hGWL^FL (result in words) [3]	inhibition at 10 µM [5]	Rank in inhibitor screen [5]	Molecule	Km [1]	kcat [1]	also measured
5900 nM	–	–	–	NC[C@@](O)(c1ccc(Cl)cc1)c1ccc(-c2cn[nH]c2)cc1 [AT13148, reference compound]	–	–	IC50 ([1]; Kinase-Glo Max assay, read-out: IC50 GWL-KinDom): 125 ± 1.7 nM; IC50 ([2]; refers to Table 2): ~11 nM; IC50 ([2]; ± S.D.): 6.13 ± 2 nM; inhibitory ratio (IC50 GWL^FL/IC50 GWL-KinDom) ([3]; for GKI-1: EC50 hGWL^FL vs IC50 hGWL-KinDom): 45; AT13148 IC50/STU IC50 ([3]; hGWL^FL inhibition): ~ 2; IC50 ([4]; refers to Table 2): ~6 nM; IC50 ([4]; ± S.D.): 11.4 ± 4 nM
–	–	–	–	Nc1ncnc2c1ncn2[C@@H]1O[C@H](COP(=O)(O)OP(=O)(O)OP(=O)(O)O)[C@@H](O)[C@H]1O [ATP]	17.2 ± 2.4 µM	10.4 ± 0.48 s⁻¹	–
–	did not demonstrably inhibit	–	–	Clc1ccc(Nc2ccc(-c3cn[nH]c3)cc2)cc1 [GKI-2, N-(4-chorophenyl)-4-(1H-pyrazol-4-yl)aniline]	–	–	–
> 100000 nM	did not demonstrably inhibit	67.6%	1	COc1cc[nH]c1/C=C1\C(=O)Nc2ccc(F)c(C#CC3(O)CCNCC3)c21 [GRI-1]	–	–	–
> 100000 nM	did not demonstrably inhibit	37%	5	CNC(C#Cc1c(F)ccc2c1C(=Cc1[nH]ccc1OC)C(=O)N2)CO (stereo not drawn) [GRI-2]	–	–	–
–	–	–	–	ENSA: His-tagged recombinant α-endosulfine, GWL substrate (protein, UniProt O43768 2-121, looked up, His tag, His-tagged recombinant α-endosulfine, GWL substrate) Alpha-endosulfine: SQKQEEENPAEETGEEKQDTQEKEGILPERAEEAKLKAKYPSLGQKPGGSDFLMKRLQKGQKYFDSGDYNMAKAKMKNKQLPSAGPDKNLVTGDHIPTPQDLPQRKSSLVTSKLAGGQVE	1.6 ± 0.3 µM	0.2 ± 0.01 s⁻¹	–
